Results taken from US20260257992A1, “AGONISTS OF SMALL HETERODIMER PARTNER FOR CANCER THERAPY” (THE BOARD OF TRUSTEES OF THE UNIVERSITY OF ILLINOIS, priority 2023, published 2026).

How the values were obtained:
[1] = tested on: IL1b mRNA; assay: IL1b mRNA reduction in Raw cells; assay type: cell-based; design: key: ✓: using strict cutoffs with respect to DSHN for passing each metric; X: using strict cutoffs with respect to DSHN for passing each metric; conditions: pass/fail with respect to DSHN
From the text: Development of a more efficacious NR0B2 agonist. While DSHN was a useful proof-of-concept small molecule, macrophages required high doses and chronic exposure for robust influences on subsequent Tregs expansion. […] Therefore, we synthesized several derivatives of DSHN and screened them using a reporter assay which makes use of the endogenous cholesterol homeostatic feedback loop, where FXR activation upregulates NR0B2, which then inhibits LXR and its normal induction of ABCA1. We then followed this screen with several others with stringent cutoffs: effect on endogenous ABCA1 and IL1β expression, reduction of Treg expansion in either macrophage or DC co-cultures, and low cellular toxicity (FIG. 5A, Table 4).

[2] = tested on: EMT6 metastatic lesions; assay: EMT6 metastatic mammary cancer (intravenous graft); assay type: in vivo, mouse
From the text: FIG. 7A-7I. DSHN-OMe reduces tumor and metastatic growth in murine models, in a myeloid cell-NR0B2 dependent manner. (A) E0771 cells were grafted into control mice (NR0B2^+/+; LysMCre^+) or mice where NR0B2 was knocked out in myeloid immune cells (NR0B2^fl/fl; LysMCre^+). 8 days post-graft, daily treatment with placebo or DSHN-OMe was initiated and subsequent tumor growth followed through time. Different letters denote statistical difference on the final measurement (day 21, 2-Way ANOVA followed by Šidák's post-hoc, N=5-8). (B) Waterfall plot illustration of data in (A) showing tumor volume at final day of measurement. Asterisk indicates significant difference (Chi-squared test, P<0.05). (C) Lewis Lung cells were grafted into control mice (NR0B2^+/+; LysMCre^+) or mice where NR0B2 was knocked out in myeloid immune cells (NR0B2^fl/fl; LysMCre^+). 10 days post-graft, daily treatment with placebo or DSHN-OMe was initiated and subsequent tumor growth followed through time. Different letters denote statistical difference on the final measurement (day 21, 2-Way ANOVA followed by Šidák's post-hoc, N=8-13). (D) Waterfall plot illustration of data in (C) showing tumor volume at final day of measurement. Asterisk indicates significant difference (Chi-squared test, P<0.05). (E) DSHN-OMe is an effective treatment against metastatic 4T1 mammary cancer growth. 4T1 cells were grafted intravenously, and lung metastatic lesions allowed to establish for 3d before treatment commenced. Metastatic burden through time is presented above the metastatic burden on the final day of imaging in the middle panel (N=12-17/group, mixed-effects model followed by Tukey's multiple comparison test). Representative luciferase images in the bottom panel. (F) DSHN-OMe is an effective treatment against metastatic EMT6 mammary cancer growth. EMT6 cells were grafted intravenously, and lung metastatic lesions allowed to establish for 3d. DSHN-OMe was administered on days 4, 5, 8, 9 and 10 post-graft. 11d post-graft lungs were imaged ex vivo for luciferase (N=15/group). (G) EMT6 metastatic lungs were assessed for Ki67 mRNA and (H) FOXP3 mRNA. (I) EMT6 metastatic lungs were assessed for CD8+ cytotoxic T cells (CD8+). Asterisks indicate statistically significant differences.
Metastatic breast cancer urgently requires new therapeutic approaches. Therefore, we tested the ability of DSHN-OMe to reduce the subsequent growth of established metastases. 4T1 cells were introduced intravenously and lesions allowed to establish for 3d. Since ICB has been approved for a subset of TNBC patients, we also included groups treated with αPDL1. […] We confirmed these findings using a different model of murine TNBC, EMT6. […]

[3] = tested on: breast cancer cell lines; assay: Proliferation of breast cancer cell lines; assay type: cell-based
From the text: Protective attributes of NR0B2 are likely due to its expression in myeloid cells. […] Among human PBMCs, various subtypes of dendritic cells (DCs) and monocyte populations had elevated expression of NR0B2.

[4] = tested on: dendritic cells from MMTV-PyMT tumors; assay: DCs (CD11B+; CD11C+) isolated from MMTV-PyMT tumors, treated ex vivo; assay type: cell-based, mouse
From the text: FIG. 3A-3F. DSHN, a tool small molecule agonist of NR0B2 reduces macrophage/dendritic cell induced Treg expansion and tumor growth in murine models. […] (B) Dendritic cells (left-CD11B^+; CD11C^+) and CD4^+ T cells (right) were isolated from MMTV-PyMT tumors by FACS, and treated with vehicle or DSHN for 3d. The resulting frequency of Treg (CD4^+; CD25^+; FoxP3^+) was quantified by flow cytometry (right graph), (N=3-5/group, t test). […] The percentage of divided CD8+ T cells in the second round was quantified. (D) DSHN increases efficacy of αPDL1 therapy on orthotopic E0771 tumors. An optimal number of E0771 cells were grafted into FoxP3-EGFP mice and allowed to grow until tumors reached 100 mm^3. Mice were euthanized on day 19 (waterfall plot, Fisher's exact test). (E) DSHN increases efficacy of αPDL1 therapy on orthotopic 4T1 tumors. 4T1 cells were orthotopically grafted into mice and allowed to establish for 5d prior to treatment start. Mice were euthanized on day 16 (waterfall plot, Fisher's exact test). (F) DSHN reduces metastatic outgrowth of 4T1 tumors and enhances efficacy of αPDL1 compared to placebo (p) (2-way ANOVA followed by Šidák's multiple comparison test for day 16). 4T1 cells were grafted intravenously, and lung metastatic lesions allowed to establish for 3d before treatment commenced. At the end of the study, lungs were removed and imaged ex vivo, quantified data indicated (N=10, 1-way ANOVA followed by Newman-Keuls multiple comparison test). Representative luciferase images shown to the right. * or different letters denote P<0.05 using indicated statistical test.
Since myeloid cells are thought to have been uniquely polarized within the tumor microenvironment, and in order to determine whether DSHN could overcome this, we isolated DCs (CD11B^+; CD11C^+) from MMTV-PyMT tumors. […] Cd4^+ T cells expanded in co-culture with DSHN pre-treated BMDMs had decreased suppressive capacity in terms of secondary CD8+ expansion (FIG. 3C).

[5] = tested on: Treg abundance; assay: In vivo model of immune tolerance to a chronic antigen

Structure (SMILES) | IL1b mRNA reduction (Raw Cells) [1] | EMT6 metastatic burden ([2]; lungs imaged ex vivo 11 d post-graft) | CD8+ cytotoxic T cells in EMT6 metastatic lungs ([2]; mouse, in vivo) | Foxp3 expression in EMT6 metastatic lungs ([2]; mouse, in vivo) | Ki67 mRNA in EMT6 metastatic lungs ([2]; mouse, in vivo) | Proliferation of breast cancer cell lines [3] | Treg expansion, tumor DCs co-cultured with CD4+ T cells [4] | PD-L1 positivity of tumor DCs ([4]; cultured with DSHN followed by LPS and IFNγ) | Viability of tumor DCs ([4]; versus vehicle treated DCs from the same tumor) | Treg abundance in vivo [5]
CCN(CC)S(=O)(=O)c1cccc2cc(C(=O)OC)c(O)cc12 [DSHN-OMe, Methyl 5-(N,N-diethylsulfamoyl)-3-hydroxy-2-naphthoate] | ✓ | significantly reduced metastatic burden | increase in the relative abundance of CD8+ cytotoxic T cells | decreased Foxp3 expression | decreased | – | – | – | – | –
CCN(CC)S(=O)(=O)c1cccc2cc(C(=O)O)c(O)cc12 [DSHN, reference compound] | – | – | – | – | – | no effect on proliferation | decreased expansion of Treg cells | decreased PD-L1 positivity | increased viability | reduce Treg abundance
